The results in this text go back to patent US20260008783A1, “MODULATORS OF FSHR AND USES THEREOF” (Celmatix Inc., priority 2022, published 2026).

Structures are written as SMILES.

This test concerns the target T1, Follicle Stimulating Hormone Receptor (FSHR) (Homo sapiens, UniProt P23945).
T1 construct: HA (N); expressed in transfected cells; host or cells: CHO-K1, transient transfection, pHM6 vector (CMV promoter)
T1 sequence (P23945 18-695): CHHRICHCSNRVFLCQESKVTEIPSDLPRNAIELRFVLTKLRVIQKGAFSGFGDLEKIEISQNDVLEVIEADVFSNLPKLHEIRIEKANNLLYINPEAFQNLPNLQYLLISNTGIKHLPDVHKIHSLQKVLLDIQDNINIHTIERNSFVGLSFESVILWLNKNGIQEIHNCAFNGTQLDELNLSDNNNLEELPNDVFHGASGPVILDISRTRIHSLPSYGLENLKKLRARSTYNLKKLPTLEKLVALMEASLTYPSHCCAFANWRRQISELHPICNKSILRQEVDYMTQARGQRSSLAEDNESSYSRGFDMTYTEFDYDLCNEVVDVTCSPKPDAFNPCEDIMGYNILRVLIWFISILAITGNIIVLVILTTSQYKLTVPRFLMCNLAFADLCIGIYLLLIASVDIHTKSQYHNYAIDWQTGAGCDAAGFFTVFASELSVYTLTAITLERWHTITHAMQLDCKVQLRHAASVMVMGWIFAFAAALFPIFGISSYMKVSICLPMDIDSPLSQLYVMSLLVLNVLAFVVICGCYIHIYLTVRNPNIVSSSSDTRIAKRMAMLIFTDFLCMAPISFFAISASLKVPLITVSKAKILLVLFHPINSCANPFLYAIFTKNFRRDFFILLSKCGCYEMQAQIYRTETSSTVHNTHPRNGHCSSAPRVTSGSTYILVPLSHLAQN
As to the kind of experiment: HTRF cAMP agonist assay, FSHR, transiently transfected CHO-K1 cells. The format is cell-based. Particulars: CHO-K1 cells transiently expressing human FSHR, read-out: IC50 FSHR LANCE CAMP.
For `COc1cc2c(cc1-c1cncc(C(N)=O)c1)-c1c(c(C(=O)N3CCOCC3(C)C)nn1-c1ncccn1)CC2` [Compound 10-08], the IC50 was determined as 400 nM.
Under `COc1cc2c(cc1-c1cncc(C(N)=O)c1)-c1c(c(C(=O)N3CCOCC3(C)C)nn1-c1cccnn1)CC2` [Compound 10-07] stands 22.5 nM.
Turning to `COc1cc2c(cc1-c1cncc(C(N)=O)c1)-c1c(c(C(=O)N3CC4CC3CN4)nn1-c1cc(Cl)cc(Cl)c1)CC2` (centres unmarked) [Compound 8-33], the IC50 came to 441 nM.
The same measure for `COc1cc2c(cc1-c1cncc(C(N)=O)c1)-c1c(c(C(=O)N(CC(F)(F)F)CC(F)(F)F)nn1-c1cc(Cl)cc(Cl)c1)CC2` [Compound 8-56]: 61.3 nM.
Under `COc1cc2c(cc1-c1cncc(C(N)=O)c1)-c1c(c(C(=O)N(C)C(C)C3CC3)nn1-c1cc(Cl)cc(Cl)c1)CC2` (centres unmarked) [Compound 8-42] stands 6.76 nM; under `COc1cc2c(cc1-c1ccn(C)n1)-c1c(c(C(=O)N(C)C(C)(C)C)nn1-c1cc(Cl)cc(Cl)c1)SC2` [Compound 3-04, N-tert-butyl-1-(3,5-dichlorophenyl)-7-methoxy-N-methyl-8-(1-methylpyrazol-3-yl)-5H-isothiochromeno[4,3-c]pyrazole-3-carboxamide], 223 nM; under `COc1cc2oc3c(C(=O)N4CCOCC4(C)C)nn(-c4ccsc4)c3c2cc1-c1ccn(C)n1` [Compound 4-07, (3,3-dimethylmorpholin-4-yl)-[6-methoxy-7-(1-methylpyrazol-3-yl)-1-(3-thienyl)benzofuro[3,2-c]pyrazol-3-yl]methanone], 2810 nM.
The same measure for `COc1cc2c(cc1-c1cncc(C(N)=O)c1)-c1[nH]nc(C(=O)N3CCOCC3(C)C)c1CC2` [Compound 9-01]: 1790 nM; for `COc1cc2c(cc1-c1cncc(C(N)=O)c1)-c1c(c(C(=O)N3CCOCC3(C)C)nn1-c1cc(Cl)cc(Cl)c1)C2` [Compound 5-01, 5-[1-(3,5-dichlorophenyl)-3-(3,3-dimethylmorpholine-4-carbonyl)-6-methoxy-4H-indeno[1,2-c]pyrazol-7-yl]pyridine-3-carboxamide]: 14.8 nM.
On to `COc1cc2c(cc1-c1cncc(C(N)=O)c1)-c1c(c(C(=O)N3CC4CCC3CN4)nn1-c1cc(Cl)cc(Cl)c1)CC2` (centres unmarked) [Compound 8-24], for which the IC50 is 524 nM.
As to `CC1(C)COCCN1C(=O)c1nn(-c2cc(Cl)cc(Cl)c2)c2c1CCc1cc(O)c(-c3cncc(C(N)=O)c3)cc1-2` [Compound 9-04, 5-[1-(3,5-dichlorophenyl)-3-(3,3-dimethylmorpholine-4-carbonyl)-7-hydroxy-4,5-dihydrobenzo[g]indazol-8-yl]pyridine-3-carboxamide], the IC50 is 6.99 nM.
The same measure for `COc1cc2c(cc1-c1ccc(=N)[nH]c1)-c1c(c(C(=O)N3CCOCC3(C)C)nn1-c1cc(F)cc(F)c1)CC2` [Compound 15-10]: 21.1 nM; for `COc1cc2c(cc1-c1cncc(C(N)=O)c1)-c1c(c(C(=O)N(C)C3CCN(C)C3)nn1-c1cc(Cl)cc(Cl)c1)CC2` (centres unmarked) [Compound 8-28]: 2180 nM.
The same measure for `CC1(C)COCCN1C(=O)c1nn(-c2cc(Cl)cc(Cl)c2)c2c1CCc1ccc(-c3cncc(C(N)=O)c3)cc1-2` [Compound 9-02]: 3.81 nM; for `COc1cc2c(cc1OC(C)C)-c1c(c(C(=O)N3CCOCC3(C)C)nn1-c1cc(Cl)cc(Cl)c1)CC2` [Compound 9-08]: 16.2 nM; for `COc1cc2c(cc1-c1cncc(C#N)c1)-c1c(c(C(=O)N3CCCN(C)CC3)nn1-c1cc(Cl)cc(Cl)c1)CC2` [Compound 8-07A, 5-(1-(3,5-dichlorophenyl)-7-methoxy-3-(4-methyl-1,4-diazepane-1-carbonyl)-4,5-dihydro-1H-benzo[g]indazol-8-yl)nicotinonitrile]: 3040 nM.
For the compound `COc1cc2c(cc1-c1cncc(C(N)=O)c1)-c1c(c(C(=O)N3C[C@@H]4C[C@H]3CO4)nn1-c1cc(Cl)cc(Cl)c1)CC2` [Compound 8-29], the IC50 came to 27.3 nM.
